The record followed here is patent US7553853B2, “Solid-state montelukast” (Synthon BV, priority 2003, dated 2009).

Series [1] can be described thus: Hygroscopicity as stated in the description. It is filed as physicochemical. The following applies: solid state.
Series [2] in a line: Hygroscopicity of montelukast acid (water content by Karl Fisher apparatus after exposure). Format: physicochemical. The method, then:
Montelukast acid (50 mg) from Example 2 was exposed to air overnight. The water content was then determined to be 0.07 wt % using a Karl Fisher apparatus.
Montelukast acid (50 mg) from Example 2 was stored for 2 days at 40° C., 75% relative humidity. The water content was then determined to be 0.27 wt % using a Karl Fisher apparatus.

Turning to `CC(C)(O)c1ccccc1CC[C@@H](SCC1(CC(=O)O)CC1)c1cccc(/C=C/c2ccc3ccc(Cl)cc3n2)c1` [Montelukast acid, [R-(E)]-1-[[[1-[3-[2-(7-chloro-2-quinolinyl)ethenyl]phenyl]-3-[2-(1-hydroxy-1-methylethyl)phenyl]propyl]thio]methyl]cyclopropane acetic acid], the “hygroscopicity in comparison to sodium montelukast” value in series [1] is on record as “reduced hygroscopicity”. For the same molecule, the water content stood at 0.07 wt % in series [2] (montelukast acid (50 mg) from Example 2, exposed to air overnight) and 0.27 wt % in series [2] (montelukast acid (50 mg) from Example 2, stored for 2 days at 40° C., 75% relative humidity).
